The text below walks through data of PubChem BioAssay (NCI).

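The compound was tested at five concentrations on cells cultured in 96-well plates, with a 48-hour exposure period. Definition used: TGI = concentration required for complete inhibition of growth.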 A value given as a limit tells only on which side of the number the result lay.

Test in all cases: NCI anticancer screen, dose series, 48 h
The test system of assay [1] is HOP-62 NSCLC.
Assay [2] concerns CCRF-CEM leukemia.
In assay [3] the test system is HL-60(TB) leukemia.
Assay [4] concerns SK-MEL-28 melanoma.
Assay [5] concerns RPMI-8226 leukemia.
Assay [6] concerns SW-620 colon.
Assay [7] has as its system HOP-92 NSCLC.
The subject of assay [8] is OVCAR-5 ovarian.
Assay [9] deals with OVCAR-4 ovarian.
For assay [10], the system named is TK-10 renal.

Consider `O=c1c2cc(-c3ccccc3)cnc2sn1-c1ccc([N+](=O)[O-])cc1`, for which the TGI in [1] is 81.7 µM; in [2], more than 100 µM; in assay [3], more than 100 µM; in assay [4], more than 100 µM; in [5], more than 100 µM; in assay [6], more than 100 µM. The TGI in [7], in assay [8] and in assay [9] was more than 100 µM each time.
As for `CCCCCC(/C=C/[C@@H]1CC(=O)C[C@H]1O[Si](C)(C)C(C)(C)C)OCOCCOC` (some centres undefined), the TGI in [10] is 26.3 µM; in assay [1] it was 31.7 µM; in assay [2] it was more than 100 µM; in assay [3], more than 100 µM; in assay [4] it was 10.5 µM; in assay [5], 6.42 µM. In addition, the TGI in assay [6] was more than 28.1 µM; in assay [7] it was 6.03 µM; in assay [8], 28.8 µM; in assay [9], 26.3 µM.
`COc1ccc(C2C(C(=O)O)=C(COC(C)=O)Oc3cc4c(cc32)OCO4)cc1` (centres undefined): the TGI in [10], in assay [1], in assay [2], in assay [3], in assay [4] and in assay [5] was more than 100 µM each time. Besides, the TGI in assay [6], in assay [7] and in assay [9] was more than 100 µM in each case.
On to `CN(N)C(=O)NCCCl`, for which the TGI in assay [10], in assay [1], in [2], in assay [3], in [4] and in assay [5] was more than 100 µM each time. In addition, the TGI in assay [6], in assay [7], in [8] and in assay [9] was more than 100 µM each time.
As for `CCN(CC)C(=S)SNCCc1ccc(S(N)(=O)=O)cc1`, the TGI is 42.5 µM in assay [10]; 26.3 µM in assay [1]; 36.8 µM in assay [2]; more than 67.2 µM in assay [3]; 25.8 µM in [4]; 38.6 µM in assay [5]. Besides, the TGI in [6] came to 36.7 µM; in assay [7], 35.1 µM; in assay [8], 30.4 µM; in [9] it was 35.6 µM.
For the compound `CC(=O)NC1C(OCc2ccccc2)OC(CO)C(O)C1OCC(=O)NC(C)C(=O)NC(CCC(=O)NCCCCCC(=O)Nc1ccc2c(c1)CN1C(=O)c3ccccc3C1=N2)C(N)=O` (centres undefined), the TGI in assay [10], in assay [1], in assay [2], in [3], in assay [4] and in assay [5] was more than 100 µM in each case. Also, the TGI is more than 100 µM in assay [6], 90.9 µM in assay [7], more than 100 µM in assay [8] and more than 100 µM in assay [9].
`O=[N+]([O-])c1cccc2nc3ccccc3c(NCCC[N+]3([O-])CCCCC3)c12`: the TGI in assay [10] is 10.9 µM; in assay [1] it was 3.55 µM; in assay [2], more than 36.5 µM; in assay [3], 8.44 µM; in [4] it was 5.11 µM; in [5] it was 10.5 µM. The TGI in assay [6] was more than 34.8 µM; in [7], 0.746 µM; in [8] it was 2.36 µM; in assay [9] it was 1.15 µM.
On to `Cc1ccc(S(=O)(=O)n2cc(-c3cnc(N)c(Br)n3)c3ccccc32)cc1`, for which the TGI in assay [10] is more than 100 µM; in [1], more than 100 µM; in [3], 6.58 µM; in assay [4], more than 57 µM; in [5], 49.6 µM; in assay [6], more than 100 µM. For the same compound, the TGI in assay [7] is more than 27.5 µM; in [8], more than 77.1 µM; in [9] it was more than 100 µM.
As to `Cc1nnc(N)nc1/C=C\c1cccs1`, the TGI was more than 100 µM in assay [10]; 38.5 µM in assay [1]; 70.8 µM in [2]; 31.7 µM in assay [3]; more than 100 µM in assay [4]; 55.4 µM in [5]. Besides, the TGI in assay [6] was more than 100 µM; in [7], 97.8 µM; in assay [8], 68.3 µM; in assay [9], 74.2 µM.
For the compound `CC(C)(C)OC(=O)NC(CCCCNC(=O)OCc1ccccc1)C(=O)NC(CCCCNC(=O)OCc1ccccc1)C(=O)ON1C(=O)CCC1=O` (centres undefined), the TGI in [10], in assay [1], in assay [2], in [3], in assay [4] and in [5] was more than 100 µM each time. Moreover, the TGI in [6], in [7] and in assay [8] was more than 100 µM each time.
On to `C[C@H](CC[C@@H](O)C(C)(C)O)[C@H]1CC[C@@]2(C)[C@@H]3CC=C4[C@@H](CC[C@H](OC5OC(CO)C(O)C(O)C5O)C4(C)C)[C@]3(C)C(=O)C[C@]12C` (some centres undefined), for which the TGI in [10] is more than 100 µM; in assay [1] it was more than 100 µM; in assay [2] it was 70.9 µM; in [3], 75.8 µM; in [4], 77.8 µM; in assay [6] it was more than 100 µM. The TGI in assay [7], in [8] and in assay [9] was more than 100 µM in each case.
For the compound `N#CC1N(C(=O)c2ccc(F)cc2)c2ccccc2N1C(=O)c1ccc(F)cc1`, the TGI in [10] was more than 100 µM; in assay [1] it was more than 100 µM; in assay [2], 87.2 µM; in assay [3] it was more than 100 µM; in assay [4] it was more than 100 µM; in [5], 75.4 µM. The TGI is more than 100 µM in assay [6], 68.8 µM in assay [7], more than 100 µM in assay [8] and more than 100 µM in assay [9].
Turning to `O=C1Nc2ccccc2NC1C1OC(c2ccccc2)=CC1=O` (centres undefined), the TGI in assay [10], in assay [2], in assay [3], in [4], in assay [5] and in [6] was more than 100 µM throughout. The TGI in assay [7], in [8] and in [9] was more than 100 µM throughout.
